The record followed here is ChEMBL document CHEMBL3351253, “Sterol fatty acid esters from the mushroom Hericium erinaceum and their PPAR transactivational effects” (J Nat Prod, 2014).

SMILES strings stand for the structures.

Format in all cases: cell-based
The test system of one data set is HepG2. As to the kind of experiment: Cytotoxicity against human HepG2 cells assessed as CCK8 after 24 hrs. The conditions noted are these: hepg2, 24 h.
The target of data set [1] is T1, Peroxisome proliferator-activated receptor (Homo sapiens, UniProt P37231+Q07869+Q03181).
T1 sequence (P37231 whole entry): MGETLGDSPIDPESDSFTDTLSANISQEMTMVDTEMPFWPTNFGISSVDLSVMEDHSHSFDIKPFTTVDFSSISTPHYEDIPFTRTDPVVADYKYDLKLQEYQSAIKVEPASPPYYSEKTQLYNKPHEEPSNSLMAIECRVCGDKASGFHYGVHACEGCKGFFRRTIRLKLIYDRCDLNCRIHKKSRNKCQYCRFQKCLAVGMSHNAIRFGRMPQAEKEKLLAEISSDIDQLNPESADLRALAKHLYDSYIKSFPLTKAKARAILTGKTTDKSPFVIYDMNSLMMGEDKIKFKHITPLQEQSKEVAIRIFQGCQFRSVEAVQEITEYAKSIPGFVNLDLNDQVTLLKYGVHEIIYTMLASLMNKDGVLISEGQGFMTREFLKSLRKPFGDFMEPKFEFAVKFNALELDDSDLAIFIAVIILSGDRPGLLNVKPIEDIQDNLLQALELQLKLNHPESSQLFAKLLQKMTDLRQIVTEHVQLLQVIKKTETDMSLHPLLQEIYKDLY
T1 sequence (Q07869 whole entry): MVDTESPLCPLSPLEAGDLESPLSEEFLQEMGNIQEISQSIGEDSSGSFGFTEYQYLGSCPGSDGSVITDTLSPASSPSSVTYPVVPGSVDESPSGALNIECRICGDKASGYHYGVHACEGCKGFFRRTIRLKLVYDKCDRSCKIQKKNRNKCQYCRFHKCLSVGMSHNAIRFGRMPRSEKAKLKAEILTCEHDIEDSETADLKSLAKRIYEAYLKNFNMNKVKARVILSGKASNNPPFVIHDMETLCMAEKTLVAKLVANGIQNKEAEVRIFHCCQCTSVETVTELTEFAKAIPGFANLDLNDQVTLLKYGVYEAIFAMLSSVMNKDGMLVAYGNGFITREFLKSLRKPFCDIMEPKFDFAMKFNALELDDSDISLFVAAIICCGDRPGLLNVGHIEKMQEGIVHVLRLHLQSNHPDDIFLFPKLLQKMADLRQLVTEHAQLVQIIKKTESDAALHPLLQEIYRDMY
T1 sequence (Q03181 whole entry): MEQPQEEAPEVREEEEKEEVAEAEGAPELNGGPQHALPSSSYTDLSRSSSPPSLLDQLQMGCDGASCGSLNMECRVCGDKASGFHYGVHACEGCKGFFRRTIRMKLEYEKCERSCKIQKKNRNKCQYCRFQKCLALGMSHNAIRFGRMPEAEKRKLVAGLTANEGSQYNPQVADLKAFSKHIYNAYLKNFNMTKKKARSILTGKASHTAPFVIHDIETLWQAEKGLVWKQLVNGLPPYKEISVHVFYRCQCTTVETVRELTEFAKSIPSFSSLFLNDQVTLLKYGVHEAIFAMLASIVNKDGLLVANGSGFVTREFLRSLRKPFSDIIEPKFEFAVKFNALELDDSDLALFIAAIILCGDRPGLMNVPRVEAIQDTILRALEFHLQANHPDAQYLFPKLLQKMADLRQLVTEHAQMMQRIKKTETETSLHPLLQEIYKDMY
Kind of data set: (§1) Transactivation of PPAR transfected in human HepG2 cells after 20 hrs by PPAR-luciferase assay.

Data set [2] has as its target T2, Peroxisome proliferator-activated receptor delta (Homo sapiens) (UniProt Q03181).
T2 sequence (whole entry): T1 sequence (Q03181 whole entry)
As to the kind of experiment: Transactivation of human Gal4-PPARbeta/delta LBD transfected in human HepG2 cells assessed as stimulation at 1 uM after 20 hrs by luciferase reporter gene assay relative to vehicle-treated control. In general terms: In a reporter assay the amount or activity of a reporter protein is the signal.

Data set [3] has as its target T3, Peroxisome proliferator-activated receptor alpha (Homo sapiens) (UniProt Q07869).
T3 sequence (whole entry): T1 sequence (Q07869 whole entry)
As to the kind of experiment: Transactivation of human Gal4-PPARalpha LBD transfected in human HepG2 cells assessed as stimulation at 1 uM after 20 hrs by luciferase reporter gene assay relative to vehicle-treated control.

In data set [4] the target is T4, Peroxisome proliferator-activated receptor gamma (Homo sapiens) (UniProt P37231).
T4 sequence (whole entry): T1 sequence (P37231 whole entry)
As to the kind of experiment: Transactivation of human Gal4-PPARgamma LBD transfected in human HepG2 cells assessed as stimulation at 5 uM after 20 hrs by luciferase reporter gene assay relative to vehicle-treated control.

Data set [5] deals with T3, Peroxisome proliferator-activated receptor alpha (Homo sapiens). Kind of data set: Transactivation of human Gal4-PPARalpha LBD transfected in human HepG2 cells assessed as stimulation at 20 uM after 20 hrs by luciferase reporter gene assay relative to vehicle-treated control.
The target is the same in data set [6]. Kind of data set: Transactivation of human Gal4-PPARalpha LBD transfected in human HepG2 cells assessed as stimulation at 10 uM after 20 hrs by luciferase reporter gene assay relative to vehicle-treated control.
Data set [7] addresses T2, Peroxisome proliferator-activated receptor delta (Homo sapiens). As to the kind of experiment: Transactivation of human Gal4-PPARbeta/delta LBD transfected in human HepG2 cells assessed as stimulation at 10 uM after 20 hrs by luciferase reporter gene assay relative to vehicle-treated control.
The target of data set [8] is T4, Peroxisome proliferator-activated receptor gamma (Homo sapiens). As to the kind of experiment: Transactivation of human Gal4-PPARgamma LBD transfected in human HepG2 cells assessed as stimulation at 20 uM after 20 hrs by luciferase reporter gene assay relative to vehicle-treated control.
Data set [9] concerns the target Peroxisome proliferator-activated receptor (Homo sapiens) (UniProt P37231+Q07869+Q03181). The description is as §1.
Data set [10] deals with T2, Peroxisome proliferator-activated receptor delta (Homo sapiens). As to the kind of experiment: Transactivation of human Gal4-PPARbeta/delta LBD transfected in human HepG2 cells assessed as stimulation at 5 uM after 20 hrs by luciferase reporter gene assay relative to vehicle-treated control.
For data set [11] the target is unchanged. Kind of data set: Transactivation of human Gal4-PPARbeta/delta LBD transfected in human HepG2 cells assessed as stimulation at 20 uM after 20 hrs by luciferase reporter gene assay relative to vehicle-treated control.
The target in data set [12] is T4, Peroxisome proliferator-activated receptor gamma (Homo sapiens). Kind of data set: Transactivation of human Gal4-PPARgamma LBD transfected in human HepG2 cells assessed as stimulation at 10 uM after 20 hrs by luciferase reporter gene assay relative to vehicle-treated control.
The target of data set [13] is T3, Peroxisome proliferator-activated receptor alpha (Homo sapiens). Kind of data set: Transactivation of human Gal4-PPARalpha LBD transfected in human HepG2 cells assessed as stimulation at 5 uM after 20 hrs by luciferase reporter gene assay relative to vehicle-treated control.

The term EC50 denotes the midpoint of the concentration-response curve. Read a high EC50 as weaker potency. Regarding `CCCCCCCCCCCCCCCCCC(=O)O[C@H]1CC[C@]2(C)[C@H]3CC[C@]4(C)[C@@H]([C@H](C)/C=C/[C@H](C)C(C)C)CC[C@H]4C3=C[C@H](O)[C@@]2(O)C1`, in the data set on HepG2, the Activity entry is reported as “Non-toxic”. For the same compound, in data set [1], the EC50 came to 20.6 µM.
In the same order, the values of `CCCCC/C=C\C/C=C\CCCCCCCC(=O)O[C@H]1CC[C@]2(C)[C@H]3CC[C@]4(C)[C@@H]([C@H](C)/C=C/[C@H](C)C(C)C)CC[C@H]4C3=C[C@H](O)[C@@]2(O)C1` are “Non-toxic” and 18.7 µM.
In the case of `CCCc1c(OCCCOc2ccc(OCC(=O)O)cc2)ccc(C(C)=O)c1O`, the Activity in data set [2] worked out at 288%.
As to `CCCCCCCC/C=C\CCCCCCCC(=O)O[C@H]1C=C2[C@@H]3CC[C@H]([C@H](C)/C=C/[C@H](C)C(C)C)[C@@]3(C)CC[C@@H]2[C@@]2(C)CC[C@H](O)C[C@]12O`, the Activity result in the data set on HepG2 is on record as “Non-toxic”. The compound further returned an EC50 in data set [1] above 50 µM.
In the same order, the values of `CCCCCCCCCCCCCCCC(=O)O[C@H]1C=C2[C@@H]3CC[C@H]([C@H](C)/C=C/[C@H](C)C(C)C)[C@@]3(C)CC[C@@H]2[C@@]2(C)CC[C@H](O)C[C@]12O` are “Non-toxic” and above 50 µM.
For `CCCCC/C=C\C/C=C\CCCCCCCC(=O)O[C@H]1CC[C@]2(C)[C@@]3(O)CC[C@]4(C)[C@@H]([C@H](C)/C=C/[C@H](C)C(C)C)CC[C@H]4C3=C[C@H](O)[C@@]2(O)C1`, in that order: “Non-toxic” and 22.3 µM.
For `CCCCCCCCCCCCCCCC(=O)O[C@H]1CC[C@@]2(C)C(=CC=C3[C@@H]4CC[C@H]([C@H](C)/C=C/[C@H](C)C(C)C)[C@@]4(C)CC[C@@H]32)C1`, in that order: “Non-toxic” and above 50 µM.
As to `CC(C)(Oc1ccc(C2CC2(Cl)Cl)cc1)C(=O)O` (centres undefined), the Activity in data set [3] is 311%.
For the compound `CCCCCCCCCCCCCCCCCC(=O)O[C@H]1CC[C@@]2(C)C(=CC=C3[C@@H]4CC[C@H]([C@H](C)/C=C/[C@H](C)C(C)C)[C@@]4(C)CC[C@@H]32)C1`, the Activity entry with HepG2 is listed as “Non-toxic”. The compound also registered an EC50 in data set [1] above 50 µM.
In the case of `CCCCCCCC/C=C\CCCCCCCC(=O)O[C@H]1C2=C3CC[C@H]([C@H](C)/C=C/[C@H](C)C(C)C)[C@@]3(C)CC[C@@H]2[C@@]2(C)CC[C@H](O)C[C@@]23O[C@@H]13`, the Activity in data set [4] is 114%; in data set [5] it was 314%; in the data set on HepG2, “Non-toxic”; in data set [6], 297%; in data set [7] it was 102%; in [8], 133%. Moreover, the Activity result was “Dose-dependent effect” in data set [9]; 100% in [10]; 112% in [11]; 125% in data set [12]; 289% in data set [13]. In addition, in data set [1], the EC50 came out at 8.2 µM.
Regarding `CCCCC/C=C\C/C=C\CCCCCCCC(=O)O[C@H]1C2=C3CC[C@H]([C@H](C)/C=C/[C@H](C)C(C)C)[C@@]3(C)CC[C@@H]2[C@@]2(C)CC[C@H](O)C[C@@]23O[C@@H]13`, the Activity in data set [4] was 129%; in [5], 386%; in the data set with HepG2, “Non-toxic”; in [6] it was 346%; in data set [7], 111%; in [8], 162%. For the same compound, the Activity result in [9] was “Dose-dependent effect”; in [10], 99.6%; in data set [11] it was 121%; in [12], 156%; in data set [13], 309%. In [1], this compound showed an EC50 of 6.4 µM.
With `CCCCC/C=C\C/C=C\CCCCCCCC(=O)O[C@H]1C=C2[C@@H]3CC[C@H]([C@H](C)/C=C/[C@H](C)C(C)C)[C@@]3(C)CC[C@@H]2[C@@]2(C)CC[C@H](O)C[C@]12O`, the Activity entry with HepG2 is on record as “Non-toxic”. This compound also had an EC50 in data set [1] above 50 µM.
For the compound `CC/C=C\C/C=C\C/C=C\CCCCCCCC(=O)O[C@@H]1C=C2[C@@H]3CC[C@H]([C@H](C)/C=C/[C@H](C)C(C)C)[C@@]3(C)CC[C@@H]2[C@@]2(C)CC[C@H](O)C[C@]12O`, the Activity entry in the data set with HepG2 was “Non-toxic”. For the same compound, the EC50 in data set [1] was above 50 µM.
